According to ChEMBL document CHEMBL1147336, “A new antibacterial sesquiterpene from Premna oligotricha” (1993):
≈ marks a conversion by molar mass, not a printed value. Calls of active or inactive are those of the source. No cut-off for these calls is given here.

Legend:
Bacillus subtilis = test: Antibacterial activity against Bacillus subtilis NCTC 10452; format: functional
Enterococcus faecalis = test: Antibacterial activity against Streptococcus faecalis NCTC 775; format: functional
Staphylococcus aureus = test: Antibacterial activity against Staphylococcus aureus NCTC 6571; format: functional
Pseudomonas aeruginosa = test: Antibacterial activity against Pseudomonas aeruginosa NCTC 6750 at 200 ug/ml; format: functional, organism-based
Bacillus pumilus = test: Antibacterial activity against Bacillus pumilus NCTC 10327; format: functional
Escherichia coli = test: Antibacterial activity against Escherichia coli NCTC 9001 at 200 ug/ml; format: functional, organism-based

| Compound | MIC (Bacillus subtilis) | MIC (Enterococcus faecalis) | MIC (Staphylococcus aureus) | Activity (Pseudomonas aeruginosa) | MIC (Bacillus pumilus) | Activity (Escherichia coli) |
| --- | --- | --- | --- | --- | --- | --- |
| C=C(CC[C@@H]1C(C)(C)CCC[C@]1(C)O)C(C)=O | 100 µg/mL (≈ 420 µM) | 150 µg/mL (≈ 629 µM) | 50 µg/mL (≈ 210 µM) | inactive | 50 µg/mL (≈ 210 µM) | inactive |
| CN[C@@H]1[C@H](O[C@H]2[C@H](O[C@H]3[C@H](O)[C@@H](O)[C@H](N=C(N)N)[C@@H](O)[C@@H]3N=C(N)N)O[C@@H](C)[C@]2(O)C=O)O[C@@H](CO)[C@H](O)[C@H]1O.CN[C@@H]1[C@H](O[C@H]2[C@H](O[C@H]3[C@H](O)[C@@H](O)[C@H](N=C(N)N)[C@@H](O)[C@@H]3N=C(N)N)O[C@@H](C)[C@]2(O)C=O)O[C@@H](CO)[C@H](O)[C@H]1O.O=S(=O)(O)O.O=S(=O)(O)O.O=S(=O)(O)O [STREPTOMYCIN SULFATE] | 3.75 µg/mL | 15 µg/mL | 3.75 µg/mL | – | 0.94 µg/mL | – |
